Earlier results as cited in publication PMC4626739 (Toxins, 2015).

Kalata B1
resistance to chaotropic agents and proteases: extremely resistant | thermal stability: highly thermostable
